According to patent US20060079439A1, “Elastin prevents occlusion of body vessels by vascular smooth muscle cells” (priority 2002, published 2006):
Entries after “also recorded” stand apart in the source; their conditions may differ. Where two headings read alike, the source gives them in different places. *1 amine or outer side, *2 acyl side, *3 side chain or, on linkers, in order; H or OH if unused. Where a SMILES comes first, the peptide text is derived from it. Bridges are numbered along the chain shown (N, C = ends). Roman numbers before positions name the chains, in order. [ ]: non-standard residue; d: D form. Actinocin(9to1) = Cc1c2oc3c(C)ccc(C(=O)[*:1])c3nc-2c(C(=O)[*:2])c(N)c1=O; NMeV = CN[C@H](C(=O)O)C(C)C; Sar = CNCC(=O)O

Legend:
[1] = tested on: vascular smooth muscle cells; format: cell-based, mouse; conditions: for effect of inhibitor on elastin peptide induced cell migration / effect of inhibitor on migration in response to PDGF: 10 μM genistein, 100 ng/ml pertussis toxin; for effect of inhibitor on elastin peptide induced cell migration: 100 ng/ml β-protomer, 20 μM Y27632; for effect on migration of Eln −/− vsmcs towards elastin: pertussis toxin 100 ng/ml, preliminary experiments; for effect of inhibitor on migration in response to PDGF: 30 ng/ml PDGF
Experimental: (§1) Instead, we postulated that elastin signals vsmcs to migrate and adhere to the elastic lamellae. To test this hypothesis we used a modified Boyden chamber assay (Li et al., 1998; Raines et al., 1993). This assay system consists of two adjacent chambers separated by a semipermeable membrane. The amount of cells placed in one chamber (upper) that migrate to the other chamber (lower) is measured by counting the number of cells that have passed through to the undersurface of the filter.
Briefly, chemotaxis was measured using a modified Boyden chamber method. […] Prior to their addition to the upper chamber, vascular smooth muscle cells were incubated with either 20 μM EDTA (inhibitor of integrin receptors), 10 μM genistein (inhibitor of receptor tyrosine kinases), 100 ng/ml pertussis toxin, 100 ng/ml β-protomer, 20 μM Y27632, or the cells were left untreated. […] Cells were added to the upper chamber and incubated for three hours.

[2] = tested on: Eln −/− vascular smooth muscle cells; conditions: for effect of pretreatment on tropoelastin- or elastin peptide-induced actin stress fiber formation: 100 μM actinomycin D, 10 μg/ml cyclohexamide, 100 ng/ml pertussis toxin or β protomer, 20 μM EDTA, 10 μM genistein; for effect on induction of contractile organization in Eln −/− vsmcs by elastin: pertussis toxin 100 ng/ml, preliminary experiments; for formation of organized actin stress fibers / actin myofilament polymerization: 3 hours, 1 ug/ml tropoelastin, 10 nM elastin peptide or 10 nM control peptide
[3] = tested on: Eln −/− vascular smooth muscle cells; assay: Focal adhesion organization, vinculin immunofluorescence; format: cell-based, mouse; conditions: 3 hours, 1 ug/ml tropoelastin, 10 nM elastin peptide or 10 nM control peptide
[4] = tested on: cAMP levels in Eln −/− vsmcs; format: cell-based, mouse; conditions: for forskolin induced cAMP levels: 10 μM forskolin pretreatment, 1 ug/ml tropoelastin, 10 μM elastin peptide or control peptide
[5] = tested on: −/− vascular smooth muscle cells; assay: F:G actin ratio, sedimentation assay; format: cell-based, mouse; conditions: for increase in the F:G actin ratio: versus untreated cells
[6] = tested on: RhoA; assay: RhoA activation, Rhotekin bead pull-down and Western blot; format: cell-based, mouse; conditions: for GTP-bound (activated) RhoA: lysates of treated −/− cells
Description: Briefly, cell lysates from treated or untreated −/− cells were immunoprecipitated using Rhotekin-coated beads which recognize GTP-bound RhoA. […] Rho-γGTP served as a positive control and Rho-GDP served as a negative control.

[7] = tested on: α smooth muscle actin and vinculin in elastin −/− vascular smooth muscle cells; assay: Western blot of protein levels; format: cell-based, mouse; conditions: three hours; 1 μg/ml tropoelastin, 10 μM elastin peptide
Experimental: We performed two experiments to address this model. […] Cells were washed with ice-cold DPBS and lysed in an additional 1 ml of Laemmli sample buffer. Following lysis, cells were collected, boiled, pelleted, and resolved by SDS-PAGE. The resolved samples were transferred to a membrane, blocked with 5% milk/PBST, incubated with either an anti-α smooth muscle actin antibody or an anti-vinculin antibody, and visualized using chemiluminescence.

[8] = tested on: Eln +/+ vascular smooth muscle cells; assay: Actin stress fiber organization, immunofluorescence scoring; format: cell-based, mouse; conditions: elastin treatment
[9] = tested on: CHO cells; assay: Modified Boyden chamber chemotaxis assay; format: cell-based
Description: as §1, with “In Eln −/− arteries, vascular smooth muscle cells accumulated in the subendothelial space and occluded the artery. […] Because the elastic lamellae are highly fenestrated allowing cells to migrate through, it is unlikely that elastin simply forms a physical cage that contains vsmcs. Instead,” for “Instead,”

[10] = tested on: COS cells; assay: Modified Boyden chamber chemotaxis assay; format: cell-based
Description: as §1, with “In Eln −/− arteries, vascular smooth muscle cells accumulated in the subendothelial space and occluded the artery. […] Because the elastic lamellae are highly fenestrated allowing cells to migrate through, it is unlikely that elastin simply forms a physical cage that contains vsmcs. Instead,” for “Instead,”

[11] = tested on: GiRK channel (GiRK 1 and GiRK 4) in A2058 cells; assay: GiRK channel activity in transfected A2058 cells; format: cell-based; conditions: A2058 cells transiently transfected with GiRK 1 and GiRK 4
Description: Briefly, A2058 cells which are known to be responsive to elastin signaling were used in these studies. A2058 cells were transiently transfected with GiRK 1 and GIRK 4 inorder to form functional heteromultimeric GiRK channels. Transfected cells were contacted with either tropoelastin, a peptide containing 7 repeats of the tropoelastin fragment VGVAPG, or a control peptide.

[12] = tested on: Eln +/+ vascular smooth muscle cells; conditions: recombinant tropoelastin treatment
[13] = tested on: Eln +/+ and Eln −/− vsmcs; conditions: added to the media; 24, 48, and 72 hours
[14] = tested on: Eln +/+ and Eln −/− vsmcs; conditions: trypan blue, end of the experiment (72 hours)
[15] = listed as recombinant tropoelastin

## O=C(O)CN(CCN(CC(=O)O)CC(=O)O)CC(=O)O [EDTA, ethylenediamine tetraacetic acid]
[1]; 10 μg/ml collagen type I, 20 μM EDTA
  effect of inhibitor on migration in response to collagen: able to block
[1]; 20 μM EDTA
  effect of inhibitor on elastin peptide induced cell migration: insensitive
[1]
  effect on migration of Eln −/− vsmcs towards elastin: insensitive
[2]
  effect of pretreatment on tropoelastin- or elastin peptide-induced actin stress fiber formation: not altered
  effect on induction of contractile organization in Eln −/− vsmcs by elastin: little or no inhibition

## C[C@@H](N)[C@H]1CC[C@H](C(=O)Nc2ccncc2)CC1 [Y-27632]
[1]; 20 μM EDTA
  effect of inhibitor on elastin peptide induced cell migration: does not block
[2]
  effect of pretreatment on tropoelastin- or elastin peptide-induced actin stress fiber formation: significantly decreased

## Cc1c2oc3c(C)ccc(C(=O)N[C@@H]4C(=O)N[C@H](C(C)C)C(=O)N5CCC[C@H]5C(=O)N(C)CC(=O)N(C)[C@@H](C(C)C)C(=O)O[C@@H]4C)c3nc-2c(C(=O)N[C@@H]2C(=O)N[C@H](C(C)C)C(=O)N3CCC[C@H]3C(=O)N(C)CC(=O)N(C)[C@@H](C(C)C)C(=O)O[C@@H]2C)c(N)c1=O [actinomycin D] (I: T[dV]P[Sar][NMeV] / II: T[dV]P[Sar][NMeV]; ester I:1-I:C, II:1-II:C; linker I:N-II:N via Actinocin(9to1))
[2]
  effect of pretreatment on tropoelastin- or elastin peptide-induced actin stress fiber formation: maintained

## C[C@@H]1C[C@@H]([C@H](O)CC2CC(=O)NC(=O)C2)C(=O)[C@@H](C)C1 [cyclohexamide]
[2]
  effect of pretreatment on tropoelastin- or elastin peptide-induced actin stress fiber formation: maintained

## O=c1c(-c2ccc(O)cc2)coc2cc(O)cc(O)c12 [genistein]
[1]
  effect of inhibitor on migration in response to PDGF: able to block
[1]; 20 μM EDTA
  effect of inhibitor on elastin peptide induced cell migration: insensitive
[2]
  effect of pretreatment on tropoelastin- or elastin peptide-induced actin stress fiber formation: not altered

## VGVAPG (A bioactive fragment of tropoelastin.) [elastin peptide]
[3]
  organization of focal adhesions (vinculin): induced organization of focal adhesions
[1]; 20 nM elastin peptide, three hours
  vascular smooth muscle migration relative to tropoelastin and PDGF: comparable to both tropoelastin and PDGF
[4]
  forskolin induced cAMP levels: decrease
[5]
  increase in the F:G actin ratio: 3 fold
[6]
  GTP-bound (activated) RhoA: significant increase
[7]
  protein levels of α smooth muscle actin or vinculin: does not alter
[2]
  formation of organized actin stress fibers / actin myofilament polymerization: induced actin myofilament polymerization
[2]; three hours, 0.2 nM to 20 μM
  dose dependence of the increase of actin stress fibers: dose dependent
[2]; time course 15 minutes to 24 hours
  treatment time of maximal effect on actin stress fiber formation: about 6 hours

## cholera toxin [reference compound]
[4]
  cAMP levels: increased

## control peptide: control peptide (SEQ ID NO: 4) (VSLSPG; Control random fragment.) [reference compound]
[4]
  forskolin induced cAMP levels: not
[5]
  increase in the F:G actin ratio: not
[2]
  formation of organized actin stress fibers / actin myofilament polymerization: did not produce this effect

## pertussis toxin
[1]
  effect of inhibitor on migration in response to PDGF: no impact; also recorded: insensitive
  effect on migration of Eln −/− vsmcs towards elastin: sensitive
[1]; 20 μM EDTA
  effect of inhibitor on elastin peptide induced cell migration: blocked
[4]
  effect on the tropoelastin or elastin peptide effect on forskolin induced cAMP levels: blocked
[5]; 100 ng/ml pretreatment
  effect of pretreatment on the tropoelastin or elastin peptide effect on the F:G actin ratio: significantly decreased
[6]; pretreatment with pertussis toxin
  RhoA activation by tropoelastin or elastin peptide after pretreatment: unable to activate RhoA
[2]
  effect of pretreatment on tropoelastin- or elastin peptide-induced actin stress fiber formation: significantly decreased
  effect on induction of contractile organization in Eln −/− vsmcs by elastin: sensitive

B1: tropoelastin: protein encoded by the elastin gene; human amino acid sequence SEQ ID NO: 2; used as recombinant tropoelastin (protein, listed as Homo sapiens)
chain: MAGLTAAAPRPGVLLLLLSILHPSRPGGVPGAIPGGVPGGVFYPGAGLGALGGGALGPGGKPLKPVPGGLAGAGLGAGLGAFPAVTFPGALVPGGVADAAAAYKAAKAGAGLGGVPGVGGLGVSAGAVVPQPGAGVKPGKVPGVGLPGVYPGGVLPGARFPGVGVLPGVPTGAGVKPKAPGVGGAFAGIPGVGPFGGPQPGVPLGYPIKAPKLPGGYGLPYTTGKLPYGYGPGGVAGAAGKAGYPTGTGVGPQAAAAAAAKAAAKFGAGAAGVLPGVGGAGVPGVPGAIPGIGGIAGVGTPAAAAAAAAAAKAAKYGAAAGLVPGGPGFGPGVVGVPGAGVPGVGVPGAGIPVVPGAGIPGAAVPGVVSPEAAAKAAAKAAKYGARPGVGVGGIPTYGVGAGGFPGFGVGVGGIPGVAGVPSVGGVPGVGGVPGVGISPEAQAAAAAKAAKYGVGTPAAAAAKAAAKAAQFGLVPGVGVAPGVGVAPGVGVAPGVGLAPGVGVAPGVGVAPGVGVAPGIGPGGVAAAAKSAAKVAAKAQLRAAAGLGAGIPGLGVGVGVPGLGVGAGVPGLGVGAGVPGFGAGADEGVRRSLSPELREGDPSSSQHLPSTPSSPRVPGALAAAKAAKYGAAVPGVLGGLGALGGVGIPGGVVGAGPAAAAAAAKAAAKAAQFGLVGAAGLGGLGVGGLGVPGVGGLGGIPPAAAAKAAKYGAAGLGGVLGGAGQFPLGGVAARPGFGLSPIFPGGACLGKACGRKRK
[8]; listed as elastin
  actin stress fiber organization in Eln +/+ cells: no affect
[8]; [15]
  actin stress fiber organization in Eln +/+ cells: does not affect
[3]
  organization of focal adhesions (vinculin): induced organization of focal adhesions
[3]; [15]
  organization of focal adhesions (vinculin): induces well-defined focal adhesions
[1]
  migration of murine vsmcs to recombinant tropoelastin: migrated aggressively
[1]; 200 ng to 200 ng gradient
  migration without concentration gradient (checkerboard analysis): minimal migration
[1]; data not shown
  amount of migration induced, relative to platelet derived growth factor: equivalent to the standard dose of 30 ng/ml of platelet derived growth factor
[1]; exogenous tropoelastin
  migration of Eln +/+ vsmcs relative to Eln −/− vsmcs: did not migrate towards exogenous tropoelastin as readily as Eln −/− vsmcs
[9]
  migration of CHO cells exposed to elastin: No migration
[10]
  migration of COS cells exposed to elastin: No migration
[4]
  cAMP levels in the presence of cholera toxin: significantly reduced
  forskolin induced cAMP levels: decrease
[4]; elastin treatment alone
  increase in cAMP: 3 fold
[4]; pertussis toxin and elastin
  level of cAMP in the presence of pertussis toxin: raises the level of cAMP
[11]
  GiRK channel activity: activation
[5]
  increase in the F:G actin ratio: 3 fold
[6]
  GTP-bound (activated) RhoA: significant increase
[7]
  protein levels of α smooth muscle actin or vinculin: does not alter
[2]
  formation of organized actin stress fibers / actin myofilament polymerization: induced actin myofilament polymerization
[2]; [15]
  formation of organized actin stress fibers / actin myofilament polymerization: induces the formation of organized actin stress fibers
[12]
  vinculin organization in Eln +/+ vsmcs: does not affect vinculin organization
[13]
  proliferation of Eln −/− and Eln +/+ vsmcs: reduced to similar levels
[14]
  cell viability: > 98%
